In US20030135173A1 (priority 2001, published 2003):
Read-outs that look alike come from different tables or passages of the source.

How the values were obtained:
S. aureus (MN8) = experiment: microbe, parasite or virus in culture; format: cell-based; conditions: Staphylococcus aureus; for inhibition at 0.5 %: 0.5% test compound; for inhibition at 0.2 %: 0.2% test compound
S. aureus FRI-1187 [1] = format: cell-based, Staphylococcus aureus
S. aureus FRI-1187 [2] = format: cell-based, Staphylococcus aureus; remark: listed apart in the source
S. aureus FRI-1169 = format: cell-based, Staphylococcus aureus
S. aureus strain RN 6390 = format: cell-based, Staphylococcus aureus
[3] = read-out: Reduction of Toxin %, Table 3
[4] = read-out: Reduction of Toxin %, Table 2
[5] = read-out: Reduction of Toxin %, Table 4

SMILES: O=C(O)c1cc(O)c(O)c(O)c1 [Gallic acid]
- inhibition at 0.5 % (S. aureus (MN8); [3]): 95%

SMILES: O=C(O)/C=C/c1ccccc1 [Trans-cinnamic acid]
- inhibition at 0.5 % (S. aureus (MN8); [3]): 82%

SMILES: OCCc1ccccc1 [Phenylethyl alcohol]
- effect on the growth of S. aureus cells (S. aureus FRI-1187 [1]): minimal, if any, effect
- inhibition at 0.5 % (S. aureus (MN8); [4]): 97%
- inhibition at 0.5 % (S. aureus (MN8); [3]): 98%
- inhibition at 0.5 % (S. aureus (MN8); [5]): 98%
- amount of exotoxin production (S. aureus FRI-1187 [2]): significantly reduced
- effect on the growth of S. aureus cells (S. aureus FRI-1169): minimal, if any, effect
- production of the alpha toxin (S. aureus strain RN 6390): significantly reduced

SMILES: O=C(O)c1ccccc1O [2-hydroxybenzoic acid]
- inhibition at 0.2 % (S. aureus (MN8); [4]): 93%

SMILES: Nc1ccc(C(=O)O)cc1 [p-aminobenzoic acid]
- inhibition at 0.2 % (S. aureus (MN8); [4]): 89%

SMILES: COC(=O)c1ccc(O)cc1 [p-hydroxybenzoic acid, methyl ester]
- inhibition at 0.2 % (S. aureus (MN8); [4]): 82%
- production of the alpha toxin (S. aureus strain RN 6390): significantly reduced

SMILES: CC(=O)N[C@@H](Cc1ccc(O)cc1)C(=O)O [Acetyl tyrosine]
- inhibition at 0.5 % (S. aureus (MN8); [3]): 69%

SMILES: CC(=O)Nc1ccc(O)cc1 [4-Acetamidophenol]
- inhibition at 0.5 % (S. aureus (MN8); [5]): 79%
